Results published in ChEMBL document CHEMBL1155394, “SARS-CoV 3CLpro inhibitory effects of quinone-methide triterpenes from Tripterygium regelii” (Bioorg Med Chem Lett, 2010).

Assays:
[1] = target: T1, Replicase polyprotein 1ab (Severe acute respiratory syndrome-related coronavirus, UniProt P0C6X7); experiment: Inhibition of 3C-like protease of SARS coronavirus assessed as concentration of FRET peptide for 60 mins by dixon plot
[2] = target: T1, Replicase polyprotein 1ab; experiment: Inhibition of 3C-like protease of SARS coronavirus assessed as concentration of FRET peptide for 60 mins

Compound | Ki [1] | IC50 [2]
CC1=C(O)C(=O)C=C2C1=CC=C1[C@@]2(C)CC[C@@]2(C)[C@@H]3C[C@](C)(C(=O)O)CC[C@]3(C)CC[C@]12C [CELASTROL] | 4.2 µM | 10.3 µM
COc1cc(/C=C/C(=O)CC(=O)/C=C/c2ccc(O)c(OC)c2)ccc1O [CURCUMIN] | – | 23.5 µM
Cc1c(O)c(O)cc2c1CC=C1[C@@]2(C)CC[C@@]2(C)[C@@H]3C[C@](C)(C(=O)O)CC[C@]3(C)CC[C@]12C [DIHYDROCELASTROL] | – | 21.7 µM
COC(=O)[C@]1(C)CC[C@]2(C)CC[C@]3(C)C4=CC=C5C(=CC(=O)C(O)=C5C)[C@]4(C)CC[C@@]3(C)[C@@H]2C1 [PRISTIMERIN] | 3.1 µM | 5.5 µM
CC1=C(O)C(=O)C=C2C1=CC=C1[C@@]2(C)CC[C@@]2(C)[C@@H]3C[C@@H](C)C(=O)C[C@]3(C)CC[C@]12C [TINGENONE] | 4 µM | 9.9 µM
